Reference: patent publication EP4813381A1, “PHARMACEUTICAL USE OF GUAIANE SESQUITERPENE DERIVATIVE” (Nanjing University Of Chinese Medicine, priority 2023, dated 2025)

Key:
[1] = test system: MDSCs and T cells; assay: T cell proliferation in a co-culture model of MDSCs and T cells (flow cytometry); format: cell-based, mice; conditions: MDSCs treated with 1 µM compound for 12 h, 48 h co-culture with T cells (1:1), compared to the control group
Procedure: Under sterile conditions, the tibia was removed, both ends of the bone were cut, and bone marrow was repeatedly flushed into a 15 mL centrifuge tube using a 1 mL syringe filled with culture medium. Centrifuge at 1600 rpm for 5 min to collect bone marrow cells. […] The spleen cell suspension was then transferred into a 15 mL centrifuge tube. Centrifuge at 1600 rpm for 5 min to collect T cells. Wash twice with 1×PBS. Resuspend the centrifuged T cells in 1 mL PBS and add 1 mL of 10 µM CFDA-SE solution. Incubate at room temperature for 8 min. […] After drug administration, collect MDSC cells into centrifuge tubes. Centrifuge at 1600 rpm for 5 min, remove supernatant, resuspend in 1 mL fresh medium, and plate. Add 1 mL stimulated activated T cells (1:1 ratio) for 48 h co-culture. After incubation, collect cells into centrifuge tubes, wash twice with PBS, and incubate with Fc antibody at room temperature in the dark for 10 min. Add CD3-labeled flow cytometry antibody and incubate at 4 °C in the dark for 30 min. After incubation, wash cells with PBS, resuspend in 300 µL PBS, and analyze by flow cytometry.

[2] = Water solubility testing of compounds (HPLC); conditions: deionized water, 37 °C water bath
[3] = Conversion rate of salt-form prodrugs to parent compound in HEPES buffer solution; format: physicochemical; conditions: conversion to Compound 1, HEPES buffer pH 7.4, 37 °C
Procedure: Adjust the pH to 7.4 using 0.5 M NaOH, then dilute to a final volume 100 mL with distilled water.
(§1) Sample Analysis: Dissolve 0.6 mg of the compound in 250 µl of deionized water separately. Add 250 µl of mouse serum or HEPES 7.4 solution to the sample, incubate at a constant temperature of 37 °C, and collect samples at different time points. Pipette 20 µl of the sample to an EP tube, add 60 µl of methanol, vortex to mix thoroughly, and centrifuge at 12,000 rpm at 4 °C for 10 min. At 1 h, 2 h, 4 h, 8 h, and 12 h respectively, collect the supernatant for HPLC analysis. Inject 10 µL of sample and record the corresponding peak areas.

[4] = Conversion rate of salt-form prodrugs to parent compound in mouse plasma; format: in vitro ADME; conditions: conversion to Compound 1, mouse plasma, 37 °C
Procedure: Pharmaceutically acceptable salts of guaiane-type sesquiterpene lactone derivatives were selected and evaluated for their conversion rates to Compound 1 and Compound 83 in plasma and HEPES buffer, with results shown in Tables 2-1, 2-2, 3-1, and 3-2.
Plasma Preparation: Collect mouse plasma into an EP tube pre-loaded with sodium heparin, centrifuge at 8000 rpm for 10 minutes at 4°C, and then collect the supernatant.
as §1, with “areas. Chromatographic conditions: Hanbang C18 column (4.6 × 250 mm, 5 µm); mobile phase: acetonitrile: […] ammonium formate solution = 60:40; flow rate 1.0 mL/min; detection wavelength 210 nm; column temperature 30 °C. [drawing 171] Table 2-1. Conversion Rate of Compounds 20-42 to Compound 1 at Different Time Points in HEPES Buffer Solution” for “areas.”

[5] = test system: renal injury markers (Ngal, Havcr1), inflammatory cytokines (TNF, IL-6, IL-1), fibrosis-related factors (α-Sma, Col1a1, Tgfb1); assay: Folic acid acute kidney injury model in mice: Q-PCR of kidney tissue; format: in vivo, C57BL/6 mice; conditions: kidney mRNA, acute model (FA)
[6] = test system: chronic kidney injury induced by unilateral ureteral ligation; assay: Unilateral ureteral ligation (UUO) chronic kidney injury model in mice: Scr and BUN; format: in vivo, C57BL/6 mice; conditions: serum, 14 days

CCOC(=O)[C@@H]1CCCN1C[C@@H]1C(=O)O[C@H]2[C@H]1CC[C@@]1(C)C[C@]13CC[C@@](C)(O)[C@H]23 [compound 4]
T-cell proliferation rate (%) [1]: ++ (T-cell proliferation rate within the 20-40% range compared to the control group)
Water-solubility [2]: 822 µg/mL

C[C@@]12CC[C@@H]3[C@H](OC(=O)[C@H]3CN3CCNCC3)[C@@H]3[C@]1(CC[C@@]3(C)O)C2 [compound 7]
Water-solubility [2]: 1488 µg/mL

CCCN(CCC)C[C@@H]1C(=O)O[C@H]2[C@H]1CC[C@@]1(C)C[C@]13CC[C@@](C)(O)[C@H]23 [compound 10]
Water-solubility [2]: 715 µg/mL

CCCCN(CCCC)C[C@@H]1C(=O)O[C@H]2[C@H]1CC[C@@]1(C)C[C@]13CC[C@@](C)(O)[C@H]23 [compound 11]
Water-solubility [2]: 682 µg/mL

C[C@@]12CC[C@@H]3[C@H](OC(=O)[C@H]3CN3CC4CCCC4C3)[C@@H]3[C@]1(CC[C@@]3(C)O)C2 (stereo partly drawn) [compound 13]
Water-solubility [2]: 419 µg/mL

C[C@@]12CC[C@@H]3[C@H](OC(=O)[C@H]3CN3CCC4(CCCC4)CC3)[C@@H]3[C@]1(CC[C@@]3(C)O)C2 [compound 15]
Water-solubility [2]: 310 µg/mL

C[C@@]12CC[C@@H]3[C@H](OC(=O)[C@H]3CN3CCC4(CC3)CC4)[C@@H]3[C@]1(CC[C@@]3(C)O)C2 [compound 18]
Water-solubility [2]: 584 µg/mL

C[C@@]12CC[C@@H]3[C@H](OC(=O)[C@H]3CN3CCCCCCC3)[C@@H]3[C@]1(CC[C@@]3(C)O)C2 [compound 19]
Water-solubility [2]: 623 µg/mL

CN(C)C[C@@H]1C(=O)O[C@H]2[C@H]1CC[C@@]1(C)C[C@]13CC[C@@](C)(O)[C@H]23 [compound 21]
Release rate ([3]; 1 h): 3.3%
Release rate ([3]; 2 h): 10.2%
Release rate ([3]; 4 h): 18.1%
Release rate ([3]; 8 h): 38.9%
Release rate ([3]; 12 h): 51.9%
Release rate ([4]; 1 h): 5.4%
Release rate ([4]; 2 h): 10.7%
Release rate ([4]; 4 h): 17.9%
Release rate ([4]; 8 h): 39.3%
Release rate ([4]; 12 h): 55.4%
α-Sma ([5]; oral 0.1 mg/kg): 1.80±0.42
α-Sma ([5]; oral 1 mg/kg, 1 mg/kg): 0.90±0.21
BUN ([6]; oral gavage 0.1 mg/kg): 17.63±1.13
Scr ([6]; oral gavage 0.1 mg/kg): 157.79±21.92
BUN ([6]; oral gavage 1 mg/kg, 1 mg/kg): 9.45±1.55
Scr ([6]; oral gavage 1 mg/kg, 1 mg/kg): 79.87±13.44

C=C1C(=O)O[C@H]2[C@H]1CCC(C)=C1CC[C@@](C)(OC(=O)NCCN3CCOCC3)[C@@H]12 [compound 98]
T-cell proliferation rate (%) [1]: + (T-cell proliferation rate within the 0-20% range compared to the control group)
Water-solubility [2]: 202500 µg/mL
